From US5358951A, “Angiotensin II receptor blocking 2, 3, 6 substituted quinazolinones” (American Cyanamid Company, priority 1993, dated 1994)

System: vasopressor response of angiotensin II
Assay: AII Challenge: antagonism of angiotensin II vasopressor response
Assay type: in vivo
Settings: for inhibition in vivo at 3 mg/kg / inhibition in vivo at 5 mg/kg: Rattus norvegicus; for inhibition in vivo at 3 mg/kg: iv; for inhibition in vivo at 5 mg/kg: po
Method in brief: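 Percent antagonism is based on the systolic blood pressure rise (mmHg) to i.v. angiotensin II at 0.05 and 0.1 ug/kg. Each rat's own predose response was taken as 100%. Challenges were repeated from 30 to 300 min after i.v., i.p. or oral compound in cannulated conscious male SHR, 16-20 weeks old.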

Question: CCCCc1nc2ccc([C@@H]3C[C@H]4CCC(C)(C)N4O3)cc2c(=O)n1Cc1ccc(-c2ccccc2-c2nnn[nH]2)cc1 (relative stereo) [Example 61, (Cis)-2-Butyl-6-(hexahydro-6,6-dimethylpyrrolo[1,2-b]isoxazol-2-yl)-3-[[2'-(1H-tetrazol-5-yl][1,1'-biphenyl]-4-yl]methyl]-4(3H)-quinazolinone] was tested. Which “Response Average Change” value (3 mg/kg I.V., AII 0.05 mcg/kg IV, 30 min post dose) did it give?
Answer: 7.5 mmHg

Question: What about the “Response Average Change” value (3 mg/kg I.V., AII 0.05 mcg/kg IV, 60 min post dose) of the same molecule?
Answer: 10 mmHg

Question: And the “Response Average Change” value (3 mg/kg I.V., AII 0.05 mcg/kg IV, 90 min post dose)?
Answer: 6 mmHg

Question: And the “Response Average Change” value (3 mg/kg I.V., AII 0.05 mcg/kg IV, 120 min post dose)?
Answer: 13.5 mmHg

Question: What about the “Response Average Change” value (3 mg/kg I.V., AII 0.05 mcg/kg IV, 180 min post dose) of the same molecule?
Answer: 15 mmHg

Question: And the “Response Average Change” value (3 mg/kg I.V., AII 0.1 mcg/kg IV, 30 min post dose)?
Answer: 7.5 mmHg

Question: What about the “Response Average Change” value (3 mg/kg I.V., AII 0.1 mcg/kg IV, 60 min post dose) of the same molecule?
Answer: 12.5 mmHg

Question: What about the “Response Average Change” value (3 mg/kg I.V., AII 0.1 mcg/kg IV, 90 min post dose) of the same molecule?
Answer: 3.5 mmHg

Question: And the “Response Average Change” value (3 mg/kg I.V., AII 0.1 mcg/kg IV, 120 min post dose)?
Answer: 15 mmHg

Question: And the “Response Average Change” value (3 mg/kg I.V., AII 0.1 mcg/kg IV, 180 min post dose)?
Answer: 16 mmHg

Question: What about the “Response Average Change” value (5 mg/kg P.O., AII 0.05 mcg/kg IV, 30 min post dose) of the same molecule?
Answer: 27.5 mmHg

Question: And the “Response Average Change” value (5 mg/kg P.O., AII 0.05 mcg/kg IV, 60 min post dose)?
Answer: 29 mmHg

Question: And the “Response Average Change” value (5 mg/kg P.O., AII 0.05 mcg/kg IV, 90 min post dose)?
Answer: 30 mmHg

Question: What about the “Response Average Change” value (5 mg/kg P.O., AII 0.05 mcg/kg IV, 120 min post dose) of the same molecule?
Answer: 22.5 mmHg

Question: What about the “Response Average Change” value (5 mg/kg P.O., AII 0.05 mcg/kg IV, 180 min post dose) of the same molecule?
Answer: 35 mmHg

Question: And the “Response Average Change” value (5 mg/kg P.O., AII 0.1 mcg/kg IV, 30 min post dose)?
Answer: 32.5 mmHg

Question: And the “Response Average Change” value (5 mg/kg P.O., AII 0.1 mcg/kg IV, 60 min post dose)?
Answer: 35 mmHg

Question: What about the “Response Average Change” value (5 mg/kg P.O., AII 0.1 mcg/kg IV, 90 min post dose) of the same molecule?
Answer: 29 mmHg

Question: What about the “Response Average Change” value (5 mg/kg P.O., AII 0.1 mcg/kg IV, 120 min post dose) of the same molecule?
Answer: 30 mmHg

Question: And the “Response Average Change” value (5 mg/kg P.O., AII 0.1 mcg/kg IV, 180 min post dose)?
Answer: 35 mmHg

Question: What about the inhibition in vivo at 3 mg/kg (0.5 h, 3 mg/kg I.V., AII 0.05 mcg/kg IV, 30 min post dose) of the same molecule?
Answer: 83%

Question: What about the inhibition in vivo at 3 mg/kg (0.5 h, 3 mg/kg I.V., AII 0.1 mcg/kg IV, 30 min post dose) of the same molecule?
Answer: 84%

Question: And the inhibition in vivo at 3 mg/kg (1 h, 3 mg/kg I.V., AII 0.05 mcg/kg IV, 60 min post dose)?
Answer: 78%

Question: And the inhibition in vivo at 3 mg/kg (1 h, 3 mg/kg I.V., AII 0.1 mcg/kg IV, 60 min post dose)?
Answer: 73%

Question: What about the inhibition in vivo at 3 mg/kg (2 h, 3 mg/kg I.V., AII 0.05 mcg/kg IV, 120 min post dose) of the same molecule?
Answer: 70%

Question: What about the inhibition in vivo at 3 mg/kg (2 h, 3 mg/kg I.V., AII 0.1 mcg/kg IV, 120 min post dose) of the same molecule?
Answer: 67%

Question: And the inhibition in vivo at 3 mg/kg (3 h, 3 mg/kg I.V., AII 0.05 mcg/kg IV, 180 min post dose)?
Answer: 67%

Question: What about the inhibition in vivo at 3 mg/kg (3 h, 3 mg/kg I.V., AII 0.1 mcg/kg IV, 180 min post dose) of the same molecule?
Answer: 65%

Question: And the inhibition in vivo at 3 mg/kg ([…], 3 mg/kg I.V., AII 0.05 mcg/kg IV, 90 min post dose)?
Answer: 87%

Question: What about the inhibition in vivo at 3 mg/kg ([…], 3 mg/kg I.V., AII 0.1 mcg/kg IV, 90 min post dose) of the same molecule?
Answer: 92%

Question: And the inhibition in vivo at 5 mg/kg (0.5 h, 5 mg/kg P.O., AII 0.05 mcg/kg IV, 30 min post dose)?
Answer: 40%

Question: And the inhibition in vivo at 5 mg/kg (0.5 h, 5 mg/kg P.O., AII 0.1 mcg/kg IV, 30 min post dose)?
Answer: 31%

Question: What about the inhibition in vivo at 5 mg/kg (1 h, 5 mg/kg P.O., AII 0.05 mcg/kg IV, 60 min post dose) of the same molecule?
Answer: 37%

Question: What about the inhibition in vivo at 5 mg/kg (1 h, 5 mg/kg P.O., AII 0.1 mcg/kg IV, 60 min post dose) of the same molecule?
Answer: 26%

Question: What about the inhibition in vivo at 5 mg/kg (2 h, 5 mg/kg P.O., AII 0.05 mcg/kg IV, 120 min post dose) of the same molecule?
Answer: 51%

Question: What about the inhibition in vivo at 5 mg/kg (2 h, 5 mg/kg P.O., AII 0.1 mcg/kg IV, 120 min post dose) of the same molecule?
Answer: 36%

Question: What about the inhibition in vivo at 5 mg/kg (3 h, 5 mg/kg P.O., AII 0.05 mcg/kg IV, 180 min post dose) of the same molecule?
Answer: 24%

Question: What about the inhibition in vivo at 5 mg/kg (3 h, 5 mg/kg P.O., AII 0.1 mcg/kg IV, 180 min post dose) of the same molecule?
Answer: 26%

Question: And the inhibition in vivo at 5 mg/kg ([…], 5 mg/kg P.O., AII 0.05 mcg/kg IV, 90 min post dose)?
Answer: 35%

Question: What about the inhibition in vivo at 5 mg/kg ([…], 5 mg/kg P.O., AII 0.1 mcg/kg IV, 90 min post dose) of the same molecule?
Answer: 38%
